Tests used:
[1] = test system: Diet-Induced Obese (DIO) Mice; test: ipGTT (glucose tolerance) in diet-induced obese mice; type: in vivo, Mus Musculus; details: for AUC Day −1: before dosing; for AUC Day −1 / AUC Day 19: in mM·min
[2] = test system: obese Psammomys obesus (Israeli sand rats); test: Oral glucose tolerance test in obese Psammomys obesus; type: in vivo
Excerpt: The outbred Israeli sand rat, Psammomys obesus is a unique animal model for the study of obesity and diabetes. When housed under standard laboratory conditions, a proportion of Israeli sand rats become obese and develop type 2 diabetes spontaneously, without requiring high caloric feeding like the diet-induced obese mouse model, or as a consequence of a mutation in a particular gene as in the db/db mouse model. In this regard their evolution into a diabetic state closely resembles the environmental and polygenic human condition. Type 2 diabetic P. obesus are also profoundly insulin resistant, as measured by the area under the blood glucose curve during an oral glucose tolerance test (OGTT). In addition, a proportion of the animals remain lean and healthy under these same conditions, while others develop a range of intermediate phenotypes. This response is similar to that seen in human populations. Diabetic P. obesus are characterised by having elevated blood glucose levels. […] USA). […] Glucose was measured in whole blood using a YSI glucose analyser (Model #2300 STAT PLUS, Yellow Springs Instruments Co., Ohio, USA). The instrument takes a sample aliquot of 25 μl and is calibrated every 10 samples using 5.55 and 8.33 mmol/L glucose standards. The analyser utilises a probe fitted with a 3-layer membrane containing an immobilised enzyme. J3-D-glucose is oxidised by glucose oxidase, which is immobilised on a polycarbonate cellulose membrane, to form glucono-( )-lactone and hydrogen peroxide. The hydrogen peroxide in turn, is oxidised at the platinum anode, producing electrons. The electron flow is linearly proportional to the steady state hydrogen peroxide concentration and therefore to the concentration of glucose in the sample. Insulin levels were measured in plasma obtained after the […] heparin-coated tubes. Plasma insulin concentrations were determined using a commercially-available double antibody radio-immunoassay (RIA) kit. (Linco Research Inc., USA). […] Solutions were then incubated for 2 hours before adding 1 ml of sheep anti-guinea pig antibody (second antibody) and left to incubate again for 30 min at room temperature. Bound and free insulin were then separated by centrifugation at 3,500 g for 20 min (Beckman Centrifuge Model J6B, Beckman Instruments, […], Australia), leaving the bound insulin in a pellet at the bottom of the tube following aspiration of each sample. A gamma counter (Minaxi g Auto-gamma 5000 series. Packard Instrument Company, IL, USA) with a counting time of 1 min was then used to measure the radioactivity of the solid phase pellet.

3T3-L1 adipocytes = test: 2-Deoxyglucose uptake by 3T3-L1 adipocytes; type: cell-based; details: for 2-Deoxyglucose uptake (Normalised: Vehicle with no insulin = 100%): DCP 10 μM
Protocol: Dichlorphenamide was added during serum-starvation. […] Insulin at 0, 0.5 and 10 nM was added for 20 min at 37° C. Uptake of 50 μM 2-deoxy glucose and 0.5 μCi 2-deoxy-[U-^3H] glucose (NEN, PerkinElmer Life Sciences) per well was measured over the final 10 min of insulin stimulation. […] Counts per minute (cpm) were measured by scintillator counter. […] The data is expressed as a mean±SEM. The statistical analysis was performed using an umpaired t-test (2-tailed).

[3] = test system: Diet-Induced Obese (DIO) Mice; test: Fasting plasma glucose in diet-induced obese mice; type: in vivo, Mus Musculus
[4] = Dichlorphenamide 50 mg/kg oral gavage
[5] = dichlorphenamide 20 mg/kg oral gavage
[6] = 20 mg/Kg DCP oral gavage, 0 min after glucose gavage
[7] = 20 mg/Kg DCP oral gavage, 15 min after glucose gavage
[8] = 20 mg/Kg DCP oral gavage, 30 min after glucose gavage
[9] = 20 mg/Kg DCP oral gavage, 45 min after glucose gavage
[10] = 20 mg/Kg DCP oral gavage, 60 min after glucose gavage
[11] = 20 mg/Kg DCP oral gavage, 90 min after glucose gavage

In the case of `NS(=O)(=O)c1cc(Cl)c(Cl)c(S(N)(=O)=O)c1` [Dichlorphenamide], the “effect on glucose tolerance of diet-induced obese mice” value [1] is reported as “improves the glucose tolerance”, the “AUC Day −1” value ([1]; Dichlorphenamide 20 mg/kg group) is reported as 1350 ± 56 and the “AUC Day 19” value ([1]; Dichlorphenamide 20 mg/kg oral gavage) is reported as 832 ± 80. The “AUC Day −1” value ([1]; Dichlorphenamide 50 mg/kg group) was 1345 ± 73, the “AUC Day 19 Treat vs Veh” value [1, 4] was −8% and the “Delta AUC Day 19 vs Day −1” value [1, 4] was −32%^1. For the same compound, the “AUC Day 19” value [1, 4] was 908 ± 38, the “AUC Day 19 Treat vs Veh” value [1, 5] was −16% and the “Delta AUC Day 19 vs Day −1” value [1, 5] was −38%^2. For the same compound, the “Plasma Glucose” value [2, 6] was 3.4 ± 0.2 mM, the “Plasma Insulin” value [2, 6] was 48 ± 15 mU/ml and the “Plasma Glucose” value [2, 7] was 5.4 ± 0.2 mM. For the same compound, the “Plasma Insulin” value [2, 7] was 141 ± 21 mU/ml, the “Plasma Glucose” value [2, 8] was 4.7 ± 0.4 mM and the “Plasma Insulin” value [2, 8] was 149 ± 49 mU/ml. The “Plasma Glucose” value [2, 9] was 5.1 ± 0.3 mM, the “Plasma Insulin” value [2, 9] was 123 ± 39 mU/ml and the “Plasma Glucose” value [2, 10] was 4.7 ± 0.4 mM. The “Plasma Insulin” value [2, 10] was 202 ± 46 mU/ml, the “Plasma Glucose” value [2, 11] was 4.3 ± 0.4 mM and the “Plasma Insulin” value [2, 11] was 117 ± 22 mU/ml. For the same compound, the “Plasma Glucose AUC” value ([2]; 20 mg/Kg DCP oral gavage, OGTT 0-90 min) was 119 ± 16 mM·min, the “Plasma Insulin AUC” value ([2]; 20 mg/Kg DCP oral gavage, OGTT 0-90 min, listed as head prints (mM · min)) was 8,548 ± 2441 and the “effect on glucose tolerance in oral glucose tolerance test” value ([2]; area under plasma glucose and plasma insulin curve) was “increased the glucose tolerance”. The “2-Deoxyglucose uptake (Normalised: Vehicle with no insulin = 100%)” value (3T3-L1 adipocytes; 0.5 nM Insulin) was 1468 ± 400^2%, the “2-Deoxyglucose uptake (Normalised: Vehicle with no insulin = 100%)” value (3T3-L1 adipocytes; 10 nM Insulin) was 1826 ± 97 ^ % and the “2-Deoxyglucose uptake (Normalised: Vehicle with no insulin = 100%)” value (3T3-L1 adipocytes; no insulin (basal)) was 508 ± 57^1%. The “effect on basal and insulin stimulated 2-deoxyglucose uptake” value (3T3-L1 adipocytes; basal, 0.5 nM and 10 nM insulin) was “enhanced”, the “effect on fasting plasma glucose levels of diet-induced obese mice” value [3] was “reduced the fasting plasma glucose levels” and the “FPG Day −1” value ([3]; dichlorphenamide 20 mg/kg group, before dosing) was 10.05 ± 0.2 mM. The “Delta FPG Treatment Day 14 vs Day −1” value [3, 5] was −17%^1, the “Delta FPG Treatment vs Vehicle Day 14” value [3, 5] was −11%^2 and the “FPG Day 14” value [3, 5] was 8.35 ± 0.2 mM.

From US10172837B2, “Insulin sensitisers and methods of treatment” (NAIA Metabolic, Inc., priority 2007, dated 2019)
